Paper PMC10138506, “Design, Synthesis and Cytotoxic Activity of Novel Salicylaldehyde Hydrazones against Leukemia and Breast Cancer” (International Journal of Molecular Sciences, 2023)

Tests used:
HL-60 cells = assay: MTT-dye reduction cytotoxicity assay, HL-60; assay type: cell-based, human; conditions: Homo sapiens, HL-60; training set; some activities published before [26-32], the rest measured for this study; read-out: IC50 ± standard deviation, HL-60
Procedure: (§1) The research included four leukemic and three cancer human cell lines: HL-60 (acute myeloid leukemia), SKW-3 (KE-37 derivative) (T-cell leukemia), BV-173 and K-562 (chronic myeloid leukemia), MDA-MB-231 (ER-negative breast carcinoma), MCF-7 (ER-positive breast adenocarcinoma), and SaOS-2 (osteogenic sarcoma). The cells were provided from the German Collection of Microorganisms and Cell Cultures (DSMZ, Braunschweig, Germany). The solid tumor cell lines (MDA-MB-231, MCF-7, and SaOS-2) were incubated in 90% RPMI-1640 supplemented with 10% fetal bovine serum (FBS), non-essential amino acids, 1 mM sodium pyruvate, and […] human insulin as monolayer adherent cultures. The remaining cell lines were cultivated as a suspension culture in cell culture flasks at 37 °C in an incubator “BB 16-Function Line” Heraeus (Kendro, Hanau, Germany) with humidified atmosphere and 5% CO2 under standard conditions–RPMI-1640 liquid media supplemented with 10% FBS and 2 mM L-glutamine. The cells were kept in log phase by supplementing with fresh media after removing cell suspension aliquots two or three times each week.
(§2) At least eight wells were used for each concentration.

KE-37 cells = assay: MTT-dye reduction cytotoxicity assay, KE-37; assay type: cell-based, human; conditions: Homo sapiens, KE-37; training set; some activities published before [26-32], the rest measured for this study; read-out: IC50 ± standard deviation, KE-37
Procedure: as §1, §2

K-562 cells = assay: MTT-dye reduction cytotoxicity assay, K-562; assay type: cell-based, human; conditions: for IC50: Homo sapiens, K562, training set, some activities published before [26-32], the rest measured for this study, read-out: IC50 ± standard deviation, K-562; for Ligand Efficiency (LE) K-562: LE = pIC50/number of heavy atoms
Procedure: as §1, §2

BV-173 cells = assay: MTT-dye reduction cytotoxicity assay, BV-173; assay type: cell-based, human; conditions: Homo sapiens, BV-173; training set; some activities published before [26-32], the rest measured for this study; read-out: IC50 ± standard deviation, BV-173
Procedure: as §1, §2

SaOS-2 cells = assay: MTT-dye reduction cytotoxicity assay, SaOS-2; assay type: cell-based, human; conditions: Homo sapiens, SAOS-2; training set; some activities published before [26-32], the rest measured for this study; read-out: IC50 ± standard deviation, SaOS-2
Procedure: as §1, §2

MDA-MB-231 cells = assay: MTT-dye reduction cytotoxicity assay, MDA-MB-231; assay type: cell-based, human; conditions: Homo sapiens, MDA-MB-231; training set; some activities published before [26-32], the rest measured for this study; read-out: IC50 ± standard deviation, MDA-MB-231
Procedure: as §1, §2

MCF-7 cells = assay: MTT-dye reduction cytotoxicity assay, MCF-7; assay type: cell-based, human; conditions: Homo sapiens, MCF7; training set; some activities published before [26-32], the rest measured for this study; read-out: IC50 ± standard deviation, MCF-7
Procedure: as §1, §2

With `COc1ccc(C=NNC(=O)c2ccncc2)c(O)c1` (hydrate or solvate) [Compound 14, 4-methoxysalicylaldehyde isonicotinoylhydrazone] the melting point was 232 to 233 °C.
Compound `COc1cccc(/C=N/NC(=O)c2ccccc2)c1O` [Compound 1] has an IC50 (HL-60 cells) of 11.3 ± 2.6 µM, an IC50 (KE-37 cells) of 9.8 ± 3.1 µM and an IC50 (K-562 cells) of 27 ± 2.7 µM. For the same compound, the “Ligand Efficiency (LE) K-562” value (K-562 cells) was 0.228, the IC50 (BV-173 cells) was 20.8 ± 4.2 µM and the IC50 (SaOS-2 cells) was 25.5 ± 6.2 µM. For the same compound, the IC50 (MDA-MB-231 cells) was 25.3 ± 2.7 µM and the IC50 (MCF-7 cells) was 22.5 ± 5.4 µM.
With `COc1cccc(/C=N/NC(=O)c2ccc(O)cc2)c1O` [Compound 2] the IC50 (HL-60 cells) was 9.2 ± 2.4 µM, the IC50 (KE-37 cells) was 7.6 ± 2.1 µM and the IC50 (K-562 cells) was 14.3 ± 2.9 µM. The “Ligand Efficiency (LE) K-562” value (K-562 cells) was 0.231, the IC50 (BV-173 cells) was 7.8 ± 2 µM and the IC50 (SaOS-2 cells) was 19.2 ± 3.1 µM. The IC50 (MDA-MB-231 cells) was 24.2 ± 3.8 µM and the IC50 (MCF-7 cells) was 19.7 ± 2.2 µM.
`COc1cccc(/C=N/NC(=O)c2ccncc2)c1O` [Compound 3] gave an IC50 (HL-60 cells) of 2.7 ± 0.9 µM, an IC50 (KE-37 cells) of 3.3 ± 1.2 µM and an IC50 (K-562 cells) of 8.7 ± 2 µM. The “Ligand Efficiency (LE) K-562” value (K-562 cells) was 0.253, the IC50 (BV-173 cells) was 3.7 ± 1.1 µM and the IC50 (SaOS-2 cells) was 11.9 ± 3.2 µM. The IC50 (MDA-MB-231 cells) was 16.4 ± 2 µM and the IC50 (MCF-7 cells) was 11.7 ± 2.4 µM.
Compound `O=C(N/N=C/c1cc(Br)ccc1O)c1ccc(O)cc1` [Compound 4] has an IC50 (HL-60 cells) of 3.14 ± 1.1 µM, an IC50 (KE-37 cells) of 3 ± 0.5 µM and an IC50 (K-562 cells) of 2.83 ± 0.3 µM. For the same compound, the “Ligand Efficiency (LE) K-562” value (K-562 cells) was 0.277, the IC50 (SaOS-2 cells) was 50 ± 5.7 µM and the IC50 (MDA-MB-231 cells) was 20.1 ± 3.9 µM. The IC50 (MCF-7 cells) was 8.88 ± 2.7 µM.
For `O=C(N/N=C/c1cc(Br)ccc1O)c1ccncc1` [Compound 5], the IC50 (HL-60 cells) was 4.13 ± 1.2 µM, the IC50 (KE-37 cells) was 2.53 ± 1 µM and the IC50 (K-562 cells) was 0.14 ± 0.09 µM. For the same compound, the “Ligand Efficiency (LE) K-562” value (K-562 cells) was 0.360, the IC50 (BV-173 cells) was 0.63 ± 0.2 µM and the IC50 (SaOS-2 cells) was 146 ± 8.9 µM. It also gave an IC50 (MDA-MB-231 cells) of 38.4 ± 2 µM and an IC50 (MCF-7 cells) of 0.26 ± 0.03 µM.
`O=C(N/N=C/c1cc([N+](=O)[O-])ccc1O)c1ccccc1` [Compound 6] gave an IC50 (HL-60 cells) of 5.64 ± 1.1 µM, an IC50 (KE-37 cells) of 6.38 ± 0.2 µM and an IC50 (K-562 cells) of 7.94 ± 2.3 µM. For the same compound, the “Ligand Efficiency (LE) K-562” value (K-562 cells) was 0.243, the IC50 (BV-173 cells) was 2.39 ± 0.3 µM and the IC50 (SaOS-2 cells) was 41.9 ± 5.1 µM. For the same compound, the IC50 (MDA-MB-231 cells) was 2.8 ± 2.7 µM and the IC50 (MCF-7 cells) was 0.25 ± 0.03 µM.
Work on `O=C(N/N=C/c1cc([N+](=O)[O-])ccc1O)c1ccc(O)cc1` [Compound 7] yielded an IC50 (HL-60 cells) of 14.5 ± 2.1 µM, an IC50 (KE-37 cells) of 19.9 ± 2.2 µM and an IC50 (K-562 cells) greater than 200 µM. It also gave an IC50 (BV-173 cells) of 7.62 ± 1 µM, an IC50 (SaOS-2 cells) of 199 ± 12 µM and an IC50 (MDA-MB-231 cells) greater than 200 µM. It also gave an IC50 (MCF-7 cells) of 4.95 ± 0.06 µM.
